# Experimental data: ChEMBL document CHEMBL5506040, “Design of FK866-Based Degraders for Blocking the Nonenzymatic Functions of Nicotinamide Phosphoribosyltransferase” (J Med Chem, 2024)
# Activity calls are given as the source filed them. The calls are words filed in the database; no cut-off is given here.
# What was measured:
# [1] = molecular target: T1, Protein cereblon/Nicotinamide phosphoribosyltransferase (Homo sapiens) (UniProt P43490+Q96SW2); experiment: PROTAC activity at CRBN/NAMPT in human SK-OV-3 cells assessed as induction of intracellular NAMPT degradation at 0.5 to 5 uM incubated for 24 hrs by Western blot analysis; format: cell-based; settings: dose 0.5-5 µM
# T1 sequence (P43490 whole entry, looked up): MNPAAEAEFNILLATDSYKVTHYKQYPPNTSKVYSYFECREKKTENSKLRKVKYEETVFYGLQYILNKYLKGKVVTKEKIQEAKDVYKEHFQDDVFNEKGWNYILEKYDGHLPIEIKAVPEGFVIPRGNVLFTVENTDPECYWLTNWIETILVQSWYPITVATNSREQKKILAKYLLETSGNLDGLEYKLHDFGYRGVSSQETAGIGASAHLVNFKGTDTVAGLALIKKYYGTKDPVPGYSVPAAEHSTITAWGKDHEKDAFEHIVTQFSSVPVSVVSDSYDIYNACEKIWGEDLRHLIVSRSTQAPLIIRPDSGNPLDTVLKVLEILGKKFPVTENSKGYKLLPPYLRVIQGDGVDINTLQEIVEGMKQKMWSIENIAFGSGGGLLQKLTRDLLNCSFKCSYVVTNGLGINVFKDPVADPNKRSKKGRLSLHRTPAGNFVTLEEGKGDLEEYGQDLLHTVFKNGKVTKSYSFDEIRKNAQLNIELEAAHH
# T1 sequence (Q96SW2 whole entry, looked up): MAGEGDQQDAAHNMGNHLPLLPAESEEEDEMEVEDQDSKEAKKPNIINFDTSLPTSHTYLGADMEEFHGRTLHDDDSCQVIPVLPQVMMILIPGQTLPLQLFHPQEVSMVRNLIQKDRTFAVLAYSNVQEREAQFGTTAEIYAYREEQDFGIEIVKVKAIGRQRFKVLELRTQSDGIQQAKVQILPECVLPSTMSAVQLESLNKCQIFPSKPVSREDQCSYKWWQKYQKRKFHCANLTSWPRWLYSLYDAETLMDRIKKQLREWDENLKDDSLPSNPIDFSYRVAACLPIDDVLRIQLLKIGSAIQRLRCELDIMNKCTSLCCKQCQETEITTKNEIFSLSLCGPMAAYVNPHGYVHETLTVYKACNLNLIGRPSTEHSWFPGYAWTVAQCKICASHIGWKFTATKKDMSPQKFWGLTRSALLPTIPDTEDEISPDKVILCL
# SK-OV-3 = experiment: cells; settings: Homo sapiens, SK-OV-3, 72 h
# Description: Cytotoxicity against human SK-OV-3 cells assessed as inhibition of cell growth incubated for 72 hrs by MTT assay
# MIA PaCa-2 = experiment: cells; settings: Homo sapiens, MIA PaCa-2, 72 h
# Description: Cytotoxicity against human MIA PaCa-2 cells assessed as inhibition of cell growth incubated for 72 hrs by MTT assay
# [2] = molecular target: T1, Protein cereblon/Nicotinamide phosphoribosyltransferase (Homo sapiens); experiment: PROTAC activity at CRBN/NAMPT in human SK-OV-3 cells assessed as induction of intracellular NAMPT degradation at 0.5 uM incubated for 24 hrs by Western blot analysis relative to control; format: cell-based
# [3] = molecular target: T1, Protein cereblon/Nicotinamide phosphoribosyltransferase (Homo sapiens); experiment: PROTAC activity at CRBN/NAMPT in human SK-OV-3 cells assessed as induction of intracellular NAMPT degradation at 5 uM incubated for 24 hrs by Western blot analysis relative to control; format: cell-based
SMILES,Activity [1],IC50 (SK-OV-3) [nM],IC50 (MIA PaCa-2) [nM],Activity [2] [%],Activity [3] [%]
O=C(/C=C/c1cccnc1)NCCCCC1CCN(C(=O)c2ccc(C(=O)NCc3cn(CCOCCOCCNc4cccc5c4C(=O)N(C4CCC(=O)NC4=O)C5=O)nn3)cc2)CC1 (configuration not stated),,4,4,0,0
O=C(/C=C/c1cccnc1)NCCCCC1CCN(C(=O)c2ccc(C(=O)NCCCCNc3cccc4c3C(=O)N(C3CCC(=O)NC3=O)C4=O)cc2)CC1 (configuration not stated),,4,4,0,22
O=C(/C=C/c1cccnc1)NCCCCC1CCN(C(=O)c2ccc(C(=O)N3CC4(CCN(c5cccc6c5C(=O)N(C5CCC(=O)NC5=O)C6=O)CC4)C3)cc2)CC1 (configuration not stated),inactive,4,4,,
O=C(/C=C/c1cccnc1)NCCCCC1CCN(C(=O)c2ccc(NC(=O)c3ccc(CN4CCN(c5cccc6c5C(=O)N(C5CCC(=O)NC5=O)C6=O)CC4)cc3)cc2)CC1 (configuration not stated),inactive,4,4,,
O=C(/C=C/c1cccnc1)NCCCCC1CCN(C(=O)c2ccc(NC(=O)CCCN3CCN(c4cccc5c4C(=O)N(C4CCC(=O)NC4=O)C5=O)CC3)cc2)CC1 (configuration not stated),inactive,4,4,,
O=C(/C=C/c1cccnc1)NCCCCC1CCN(C(=O)c2ccc(NC(=O)CCCCN3CCN(c4cccc5c4C(=O)N(C4CCC(=O)NC4=O)C5=O)CC3)cc2)CC1 (configuration not stated),inactive,4,4,,
O=C(/C=C/c1cccnc1)NCCCCC1CCN(C(=O)c2ccc(C(=O)N3CCC(C(=O)N4CCN(c5cccc6c5C(=O)N(C5CCC(=O)NC5=O)C6=O)CC4)CC3)cc2)CC1 (configuration not stated),inactive,4,4,,
O=C(/C=C/c1cccnc1)NCCCCC1CCN(C(=O)c2ccc(C(=O)NCc3cn(CCOCCOCCOCCOCCOCCNc4cccc5c4C(=O)N(C4CCC(=O)NC4=O)C5=O)nn3)cc2)CC1 (configuration not stated),,4,4,51,52
O=C(/C=C/c1cccnc1)NCCCCC1CCN(C(=O)c2ccc(C(=O)NCc3cn(CCOCCOCCOCCOCCNc4cccc5c4C(=O)N(C4CCC(=O)NC4=O)C5=O)nn3)cc2)CC1 (configuration not stated),,4,4,40,27
O=C(/C=C/c1cccnc1)NCCCCC1CCN(C(=O)c2ccc(C(=O)N3CCC4(CC3)CC(C(=O)N3CCN(c5cccc6c5C(=O)N(C5CCC(=O)NC5=O)C6=O)CC3)C4)cc2)CC1 (configuration not stated),inactive,4,4,,
O=C(/C=C/c1cccnc1)NCCCCC1CCN(C(=O)c2ccc(NC(=O)CCOCCOCCOCCOCCNc3cccc4c3C(=O)N(C3CCC(=O)NC3=O)C4=O)cc2)CC1 (configuration not stated),,4,4,0,0
O=C(/C=C/c1cccnc1)NCCCCC1CCN(C(=O)c2ccc(C(=O)N3CCC(C(=O)Nc4cccc5c4C(=O)N(C4CCC(=O)NC4=O)C5=O)CC3)cc2)CC1 (configuration not stated),inactive,4,4,,
O=C(/C=C/c1cccnc1)NCCCCC1CCN(C(=O)c2ccc(C(=O)NCCCCCNc3cccc4c3C(=O)N(C3CCC(=O)NC3=O)C4=O)cc2)CC1 (configuration not stated),,4,4,0,0
O=C(/C=C/c1cccnc1)NCCCCC1CCN(C(=O)c2ccc(C(=O)N3CCN(Cc4ccc(CNc5cccc6c5C(=O)N(C5CCC(=O)NC5=O)C6=O)cc4)CC3)cc2)CC1 (configuration not stated),inactive,4,4,,
O=C(/C=C/c1cccnc1)NCCCCC1CCN(C(=O)c2ccc(C(=O)NCCNc3cccc4c3C(=O)N(C3CCC(=O)NC3=O)C4=O)cc2)CC1 (configuration not stated),,4,4,0,11
O=C(/C=C/c1cccnc1)NCCCCC1CCN(C(=O)c2ccc(C(=O)NCc3cn(CCOCCOCCOCCNc4cccc5c4C(=O)N(C4CCC(=O)NC4=O)C5=O)nn3)cc2)CC1 (configuration not stated),,4,4,34,20
O=C(/C=C/c1cccnc1)NCCCCC1CCN(C(=O)c2ccc(C(=O)NCCCNc3cccc4c3C(=O)N(C3CCC(=O)NC3=O)C4=O)cc2)CC1 (configuration not stated),,4,4,29,0

# The remaining lines, values ahead:
Activity [1],IC50 (SK-OV-3) [nM],IC50 (MIA PaCa-2) [nM],Activity [2] [%],Activity [3] [%],SMILES
inactive,4,4,,,O=C(/C=C/c1cccnc1)NCCCCC1CCN(C(=O)c2ccc(C(=O)N3CCN(c4cccc5c4C(=O)N(C4CCC(=O)NC4=O)C5=O)CC3)cc2)CC1 (configuration not stated)
inactive,4,4,,,O=C(/C=C/c1cccnc1)NCCCCC1CCN(C(=O)c2ccc(C(=O)N3CCC(CC(=O)Nc4cccc5c4C(=O)N(C4CCC(=O)NC4=O)C5=O)CC3)cc2)CC1 (configuration not stated)
,4,4,0,0,O=C(/C=C/c1cccnc1)NCCCCC1CCN(C(=O)c2ccc(C(=O)NCCCCCCNc3cccc4c3C(=O)N(C3CCC(=O)NC3=O)C4=O)cc2)CC1 (configuration not stated)
inactive,4,4,,,O=C(/C=C/c1cccnc1)NCCCCC1CCN(C(=O)c2ccc(C(=O)N3CCC4(CCN(c5cccc6c5C(=O)N(C5CCC(=O)NC5=O)C6=O)C4)C3)cc2)CC1 (configuration not stated)
,4,4,0,0,O=C(/C=C/c1cccnc1)NCCCCC1CCN(C(=O)c2ccc(NC(=O)COCCOCCNc3cccc4c3C(=O)N(C3CCC(=O)NC3=O)C4=O)cc2)CC1 (configuration not stated)
,4,4,25,30,O=C(/C=C/c1cccnc1)NCCCCC1CCN(C(=O)c2ccc(C(=O)NCc3cn(CCOCCNc4cccc5c4C(=O)N(C4CCC(=O)NC4=O)C5=O)nn3)cc2)CC1 (configuration not stated)
inactive,4,4,,,O=C(/C=C/c1cccnc1)NCCCCC1CCN(C(=O)c2ccc(NC(=O)CN3CCN(c4cccc5c4C(=O)N(C4CCC(=O)NC4=O)C5=O)CC3)cc2)CC1 (configuration not stated)
inactive,4,4,,,O=C(/C=C/c1cccnc1)NCCCCC1CCN(C(=O)c2ccc(C(=O)N3CCC4(CC3)CN(c3cccc5c3C(=O)N(C3CCC(=O)NC3=O)C5=O)C4)cc2)CC1 (configuration not stated)
,4,4,0,0,O=C(/C=C/c1cccnc1)NCCCCC1CCN(C(=O)c2ccc(NC(=O)COCCOCCOCCNc3cccc4c3C(=O)N(C3CCC(=O)NC3=O)C4=O)cc2)CC1 (configuration not stated)
inactive,4,4,,,O=C(/C=C/c1cccnc1)NCCCCC1CCN(C(=O)c2ccc(C(=O)N3CCC4(C3)CN(c3cccc5c3C(=O)N(C3CCC(=O)NC3=O)C5=O)C4)cc2)CC1 (configuration not stated)
,4,4,0,0,O=C(/C=C/c1cccnc1)NCCCCC1CCN(C(=O)c2ccc(NC(=O)COCCOCCOCCOCCNc3cccc4c3C(=O)N(C3CCC(=O)NC3=O)C4=O)cc2)CC1 (configuration not stated)
,4,4,0,0,O=C(/C=C/c1cccnc1)NCCCCC1CCN(C(=O)c2ccc(C(=O)NCCCCCc3cccc4c3CN(C3CCC(=O)NC3=O)C4=O)cc2)CC1 (configuration not stated)
